Measurements: US4925797A, “Process for the decomposition of acrylamide” (Imperial Chemical Industries plc, priority 1986, dated 1990)

Test system: Methylophilus methylotrophus amidase (acylamide amido hydrolase E.C. No. 3-5-1-4)
Experiment: Methylophilus methylotrophus amidase properties (Km)
Type: biochemical
Settings: amidase induced in Methylophilus methylotrophus; substrate as named

Row | Structure (SMILES) | Km [mM]
1 | CC(N)=O [Acetamide] | 0.2
2 | C=CC(N)=O [Acrylamide] | 10
